Measured values taken from article PMC11714206, “Massively Parallel Screening of Toll/Interleukin‐1 Receptor (TIR)‐Derived Peptides Reveals Multiple Toll‐Like Receptors (TLRs)‐Targeting Immunomodulatory Peptides” (Advanced Science, 2024).

Target: T1, MyD88^TIR (Homo sapiens, UniProt Q99836)
T1 construct: MyD88 (residues 148–296); 6xHis; made in house; host or cells: E. coli BL21 (DE3)
Assay: T‐Surf phage library (P8 and P3) selection against MyD88^TIR, four rounds, NGS read counts
Format: binding
Details: for P3_MyD88 Rank (after) / P3_MyD88 Rank (before): P3 library; for P8_MyD88 Rank (after) / P8_MyD88 Rank (before): P8 library
Protocol: T‐Surf libraries were screened against the immobilized TIR domains of two major human TLR adaptor proteins, MAL^TIR and MyD88^TIR, allowing cross‐species selection of TIR‐binding motifs with 190 946 TIR‐derived peptides in a single binding assay (Scheme 1). Enriched phage pools from the fourth round of selection were analyzed using NGS after barcoding the peptide‐coding regions of the phage pools.
Phage display screening was performed by coating two wells of a 96‐well plate (Maxisorp, Thermo Fisher Scientific) with 100 µL of 5 µg mL^−1 TIR domains overnight; then, the coated wells were blocked with 200 µL of blocking buffer (0.2% BSA in PBS) and set aside for 1 h at 4 °C with gentle shaking. Next, 100 µL of the phage library was added to the wells and incubated for 1 h at room temperature (RT; 20 – 22 °C) with gentle shaking. The plate was washed four times with PBS containing 0.5% Tween‐20; the bound phages were eluted by adding 100 µL of 100 mM HCl to each well. The elute was neutralized with 10 µL of 1.0 M Tris‐HCl (pH 11.0). E. coli TG1 cells were grown to the log phase (A600 = ≈0.6), and 1 mL of the culture was incubated with 100 µL of the eluted phages for 30 min at 37 °C, with shaking at 200 rpm. Next, 1 µL of M13KO7 helper phages was added, followed by incubation for 45 min at 37 °C, with shaking. Subsequently, the cells were transferred to 25 mL of 2× yeast extract tryptone/carbenicillin/kanamycin medium and incubated overnight at 37 °C with shaking at 200 rpm. The amplified phages were precipitated with 20% PEG‐8000/2.5 M NaCl to be used for the next round of selection.
The naïve T‐Surf libraries in P8 and P3 and the enriched phage pools after four rounds were barcoded for NGS as previously described.^[ [59] ^] Briefly, 5 µL of the phage pool was used as a template for 20 cycles of a 50 µL PCR reaction using […] each of forward and reverse barcoded primers and PrimeSTAR Max DNA Polymerase. The PCR products were purified using Expin Gel SV (GeneAll). The NGS samples were quantified using qPCR, following the qPCR Quantification Protocol Guide (KAPA Library Quantification kits for Illumina Sequencing Platform), and qualified using the TapeStation High Sensitivity D1000 ScreenTape (Agilent Technologies). The indexed libraries were further sequenced by Macrogen (Seoul, Republic of Korea) using the NovaSeq platform (Illumina) with 100 bp paired‐end reads. The reads were demultiplexed by barcodes and filtered for an average Phred quality score of at least 30, followed by trimming the flanking consensus sequences using Cutadapt (version 2.3). Peptide sequence populations were analyzed according to the read counts.

[1] = selection against MyD88, rank after grouping
[2] = selection against MyD88, rank before grouping
[3] = selection against MyD88 TIR, rank by count after grouping
[4] = selection against MyD88 TIR, rank by count before grouping
[5] = P8_MyD88: rank by count after grouping
[6] = P8_MyD88: rank by count before grouping
[7] = P3_MyD88: rank by count after grouping
[8] = P3_MyD88: rank by count before grouping
[9] = selection against MyD88, rank by count after grouping
[10] = selection against MyD88, rank by count before grouping
[11] = P8_MyD88: rank by NGS read count after grouping
[12] = P8_MyD88: rank by NGS read count before grouping
[13] = 4R selection against MyD88, rank after grouping
[14] = 4R selection against MyD88, rank before grouping

T1 sequence (Q99836 148-296): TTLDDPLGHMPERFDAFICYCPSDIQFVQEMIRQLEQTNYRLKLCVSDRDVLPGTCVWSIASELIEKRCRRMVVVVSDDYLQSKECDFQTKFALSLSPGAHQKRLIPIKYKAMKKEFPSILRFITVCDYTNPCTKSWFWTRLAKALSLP

SSCREGLWSLLELSKK
P3_MyD88 Rank (after) [1]: 565 | P3_MyD88 Rank (before) [2]: 3262

DPQALDWLYERLVSLF
P8_MyD88 Rank (after) [3]: 203 | P8_MyD88 Rank (before) [4]: 2685

WDFASNMAQFWDRRYY
P8_MyD88 Rank (after) [3]: 283 | P8_MyD88 Rank (before) [4]: 1593

IDDDHLTYLVRLIEAL
Rank (after) [5]: 473 | Rank (before) [6]: 3638

LRYDDPWFWEKLVFAM
P8_MyD88 Rank (after) [3]: 237 | P8_MyD88 Rank (before) [4]: 416

NELVHEWSSKANSVVG
Rank (after) [7]: 452 | Rank (before) [8]: 3442

YLLAGDFWIFFTLLTA
P8_MyD88 Rank (after) [9]: 738 | P8_MyD88 Rank (before) [10]: 1964

DWVWDYLLPNLEGHAT
Rank (after) [11]: 904 | Rank (before) [12]: 2439

LNVEGWRQALEKAGKL
Rank (after) [7]: 131 | Rank (before) [8]: 2401

FDASTWFFQEWARFL
Rank (after) [11]: 930 | Rank (before) [12]: 1313

PQVLGWFYERLVSLIL
Rank (after) [5]: 447 | Rank (before) [6]: 3414

YELDFSHFWLFDGQAGGEA
P8_MyD88 Rank (after) [3]: 284 | P8_MyD88 Rank (before) [4]: 664

APQDLEWFYERLVSLIL
Rank (after) [5]: 431 | Rank (before) [6]: 2322

YAASPWWFDELVHILW
P8_MyD88 Rank (after) [9]: 678 | P8_MyD88 Rank (before) [10]: 1722

WVFQTLYSTLEDEYAF
P8_MyD88 Rank (after) [3]: 228 | P8_MyD88 Rank (before) [4]: 372

YYLDHSHPRKQNGEFG
P3_MyD88 Rank (after) [1]: 556 | P3_MyD88 Rank (before) [2]: 1436

YARSDDNYYYWVTHVLLRHL
P8_MyD88 Rank (after) [1]: 507 | P8_MyD88 Rank (before) [2]: 1764

DHHLDLLRGIAIKLEILG
P3_MyD88 Rank (after) [9]: 722 | P3_MyD88 Rank (before) [10]: 1998

QQISLVQLKVLEESHV
P8_MyD88 Rank (after) [13]: 648 | P8_MyD88 Rank (before) [14]: 3604

LSRVPSVHDFRGFATI
Rank (after) [7]: 111 | Rank (before) [8]: 682

DPQDLVWFYESLVSLF
P8_MyD88 Rank (after) [3]: 263 | P8_MyD88 Rank (before) [4]: 2714

MFGGDSFHDFLELISM
Rank (after) [5]: 391 | Rank (before) [6]: 3656

LAIIGLIGSILWALK
P8_MyD88 Rank (after) [3]: 210 | P8_MyD88 Rank (before) [4]: 492

IDDDHLTYLVRLLLS
P8_MyD88 Rank (after) [13]: 597 | P8_MyD88 Rank (before) [14]: 3635

ELDFSHFWLFEAGGDA
Population (P8_MyD88 pool: P8 T-Surf phage library, 4th round of selection against MyD88 TIR, share of NGS reads): 0.02%

YYLDPSHLRKQSGESE
P3_MyD88 Rank (after) [3]: 255 | P3_MyD88 Rank (before) [4]: 1460

NELVHVWRSKANRLVG
P3_MyD88 Rank (after) [13]: 646 | P3_MyD88 Rank (before) [14]: 3408

DPQDLQWSYERLVSRI
Rank (after) [11]: 938 | Rank (before) [12]: 2939

SELCVVAEGSVSPLDM
P3_MyD88 Rank (after) [13]: 587 | P3_MyD88 Rank (before) [14]: 3010

DPQDLDCYYERLVSLF
Rank (after) [11]: 1004 | Rank (before) [12]: 2741

DVLYYALIDAGIRVFR
Rank (after) [5]: 182 | Rank (before) [6]: 216

YIIWFEDIQLIHLLCD
P8_MyD88 Rank (after) [1]: 564 | P8_MyD88 Rank (before) [2]: 2108

PEKANGGENAFFNNIV
P3_MyD88 Rank (after) [1]: 566 | P3_MyD88 Rank (before) [2]: 2705

HLIQQGIELHLHQLHL
Rank (after) [11]: 941 | Rank (before) [12]: 3556

WSQPEFRAAMQAVLEL
P8_MyD88 Rank (after) [3]: 274 | P8_MyD88 Rank (before) [4]: 530
